This note sets out measurements from publication PMC12054212 (BMC Microbiology, 2025).

One may read the IC50 as the concentration at which inhibition is half-maximal. The low end stands for inhibition by little substance, the high end for a need for much substance.

Structures are written as SMILES.

In assay [1] the target is T1, Metallo-L1 β-lactamase (Stenotrophomonas maltophilia, UniProt B2FTM1). The assay can be described thus: nitrocefin hydrolysis inhibition assay, absorbance at […] nm, […] enzyme. Type of assay: biochemical.
T1 sequence (B2FTM1 22-290): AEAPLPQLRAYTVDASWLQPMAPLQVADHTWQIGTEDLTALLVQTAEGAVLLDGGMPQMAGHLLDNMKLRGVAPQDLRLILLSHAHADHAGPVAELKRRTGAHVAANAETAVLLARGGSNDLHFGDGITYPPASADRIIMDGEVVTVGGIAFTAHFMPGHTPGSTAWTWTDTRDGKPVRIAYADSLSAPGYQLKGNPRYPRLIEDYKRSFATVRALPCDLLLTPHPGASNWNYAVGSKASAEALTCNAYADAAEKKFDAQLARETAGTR
Assay [2] addresses T1, Metallo-L1 β-lactamase. In words: nitrocefin hydrolysis inhibition assay, absorbance at […] nm, positive control. Type of assay: biochemical.

For the compound `Oc1c2ccccc2cc2cnc3ccccc3c12` [Benzo[j]phenanthridin-12-ol], on Metallo-L1 β-lactamase [1], it took 23 µM to reach half-maximal inhibition (IC50). On to `O=C(O)CN(CCN(CC(=O)O)CC(=O)O)CC(=O)O` [EDTA], for which, at Metallo-L1 β-lactamase [2], the IC50 amounted to 2.24 µM.
